Assay results as given in patent US20230068456A1, “REAL-TIME MONITORING OF IN VIVO FREE RADICAL SCAVENGERS THROUGH HYPERPOLARIZED N-ACETYL CYSTEINE ISOTOPES” (THE UNITED STATES OF AMERICA, AS REPRESENTED BY THE …, priority 2020, published 2023).

Tests used:
Hs766t tumor xenografts = assay: Dynamic 13C MR spectra and CSI of hyperpolarized [1-13C] NAC at 3T MRI, Hs766t tumor xenografts; type: in vivo, mouse
Description: (§1) All of the animal experiments were conducted in compliance with the Guide for the Care and Use of Laboratory Animal Resources, and experimental protocols were approved by the Animal Care and Use Committee, National Cancer Institute (NCI-CCR-ACUC) (National Research Council, Committee for the Update of the Guide for the Care and Use of Laboratory Animals. Guide for the care and use of laboratory animals. Washington, D.C.: Institute of Laboratory Animal Resources 2011). The human pancreatic ductal adenocarcinoma (PDAC) cell lines, […], and SU.86.86 cells, were purchased from Threshold Pharmaceuticals (Redwood City, Calif.). Human pancreatic tumor inoculated mice were generated by subcutaneous injection of 3×10^5 cells into the right hind legs of mice. Detailed conditions for cell culture and xenograft tumor development were as described previously in K. Yamamoto, J. R. Brender, T. Seki, S. Kishimoto, N. Oshima, R. Choudhuri, S. S. Adler, E. M. Jagoda, K. Saito, N. Devasahayam, P. L. Choyke, J. B. Mitchell, and M. C. Krishna, Cancer Res 2020, 80, 2087-2093, which is incorporated herein in its entirety by reference. […] Both respiration (60-90 breaths per min) and temperature (35-37° C.) were maintained at a normal physiological range and monitored continuously during the animal experiment using the adjusted anesthesia. […]

SU.86.86 = assay: In cell dynamic 13C NMR of hyperpolarized [1-13C] NAC at 1T, SU.86.86 cells; type: cell-based, human
Description: FIG. 2B is a in cell dynamic ^13C NMR spectra of hyperpolarized [1-^13C] NAC at 1T NMR on 20×10^6 cells of human pancreatic tumor cell lines of SU.86.86 (left) and expanded spectra with 100 times magnifications at 2 seconds after the hyperpolarized [1-^13C] NAC injections in SU.86.86 (right);
(§2) In an embodiment, a cell dynamic ^13C NMR spectra of hyperpolarized [1-^13C] NAC at 1T NMR spectrometer on human pancreatic ductal adenocarcinoma (PDAC) cell lines, which have one of the worst prognosises among common cancers and need effective diagnostic approaches, Hs766t (FIG. 2A) and SU.86.86 (FIG. 2B), in both cases, the cell dynamic ^13C-nuclear magnetic resonance (NMR) spectra of the hyperpolarized [1-^13C] […]
(§3) All of the animal experiments were conducted in compliance with the Guide for the Care and Use of Laboratory Animal Resources, and experimental protocols were approved by the Animal Care and Use Committee, National Cancer Institute (NCI-CCR-ACUC) (National Research Council, Committee for the Update of the Guide for the Care and Use of Laboratory Animals. Guide for the care and use of laboratory animals. Washington, D.C.: Institute of Laboratory Animal Resources 2011). […] Both respiration (60-90 breaths per min) and temperature (35-37° C.) were maintained at a normal physiological range and monitored continuously during the animal experiment using the adjusted anesthesia.

[1] = tested on: SU.86.86 tumor xenografts; assay: Dynamic 13C MR spectra of hyperpolarized [1-13C] NAC at 3T MRI, SU.86.86 tumor xenografts; type: in vivo; settings: SU.86.86 mouse leg xenograft, iv, FIGS. 4B, 4C
Description: as §1

acylase 1 = target: T1, acylase 1 (Homo sapiens, UniProt Q03154); assay: In vitro enzymatic assay of hyperpolarized NAC incubated with acylase 1 (1T NMR); type: biochemical; settings: without inhibitor
T1 sequence (Q03154 1-408): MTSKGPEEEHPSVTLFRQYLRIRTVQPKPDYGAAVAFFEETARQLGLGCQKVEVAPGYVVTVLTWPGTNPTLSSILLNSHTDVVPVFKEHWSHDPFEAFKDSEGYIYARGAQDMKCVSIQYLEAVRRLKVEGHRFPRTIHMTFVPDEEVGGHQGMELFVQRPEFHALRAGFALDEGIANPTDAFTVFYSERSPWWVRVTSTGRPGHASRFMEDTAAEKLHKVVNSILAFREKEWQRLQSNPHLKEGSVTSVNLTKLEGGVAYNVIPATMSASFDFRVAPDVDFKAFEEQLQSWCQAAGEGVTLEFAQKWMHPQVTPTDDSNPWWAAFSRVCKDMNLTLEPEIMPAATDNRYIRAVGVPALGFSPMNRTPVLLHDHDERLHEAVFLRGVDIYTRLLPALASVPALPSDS

Hs766t = assay: In cell dynamic 13C NMR of hyperpolarized [1-13C] NAC at 1T, Hs766t cells; type: cell-based, human
Description: FIG. 2A is a in cell dynamic ^13C NMR spectra of hyperpolarized [1-^13C] NAC at 1T NMR on 20×10^6 cells of human pancreatic tumor cell lines of Hs766t (left) and expanded spectra with 100 times magnifications at 2 seconds after the hyperpolarized [1-^13C] NAC injections in Hs766t (right);
as §2, §3

[2] = Hyperpolarized 13C chemical shift imaging (CSI) in healthy mouse body and head after iv injection

enzymatic conversion by acylase 1 (acylase 1): immediate production of cysteine | time to global distribution throughout the mouse body after injection ([2]; healthy mouse, iv tail vein cannula, 13C CSI): ≤ 30 s | tissue distribution: lung region signal ([2]; healthy mouse, iv, 13C CSI, FIG. 6A): lower signal | metabolites in the liver and kidney regions ([2]; normal mice, in vivo, no imposed oxidative stress): not observed
SMILES: CC(=O)N[C@@H](CS)[13C](=O)O [[1-^13C] NAC, [1-^13C] N-acetyl cysteine]
amount of NAC-GSH formed (Hs766t tumor xenografts; Hs766t compared with SU.86.86 tumors, FIGS. 4C and 4D): higher in Hs766t than in SU.86.86 tumors | NAC-GSH formation in tumor (Hs766t tumor xenografts; Hs766t mouse leg xenograft, iv, FIGS. 4A, 4C): rapidly formed | NAC-GSH concentrations (SU.86.86; SU.86.86 compared with Hs766t): Lower concentrations NAC-GSH | NAC-GSH formation in cell culture (SU.86.86; SU.86.86, 20×10^6 cells, FIG. 2C): can produce NAC-glutathione (NAC-GSH) | NAC-GSH formation in tumor [1]: rapidly formed | NAC-GSH formation in cell culture (Hs766t; Hs766t, 20×10^6 cells, FIG. 2C): can produce NAC-glutathione (NAC-GSH) | cell membrane permeation (Hs766t; PDAC cell cultures (Hs766t and SU.86.86), suggested by the rapid kinetics of NAC-GSH formation): may permeabilize through cell membranes without active transport
